In US10618918B2, “Substituted boronic acids as antimicrobials” (priority 2015, dated 2020):

Legend:
[1] = test system: KP1004 KPC-2; assay: Biapenem potentiation (MPC@1), strain KP1004 KPC-2; format: cell-based; settings: minimum BLI concentration inhibiting growth with biapenem 1 μg/mL; tested up to 40 μg/mL
Method: (§1) Biapenem was present in the test medium at 1 μg/mL. […] Table 3 summarizes the BLI potency of biapenem potentiation (MPC@1) for two strains overexpressing class A (KPC) and class D (OXA-48) carbapenemases. Biapenem MIC for each strain is also shown.

[2] = test system: KP1086 OXA-48; assay: Biapenem potentiation (MPC@1), strain KP1086 OXA-48; format: cell-based; settings: minimum BLI concentration inhibiting growth with biapenem 1 μg/mL; tested up to 40 μg/mL
Method: as §1

[3] = test system: AB1053 OXA-72; assay: Meropenem potentiation (MPC@8), strain AB1053 OXA-72; format: cell-based, Acinetobacter baumannii; settings: minimum BLI concentration inhibiting growth with meropenem 8 μg/mL; tested up to 20 μg/mL
[4] = test system: AB1054 OXA-23; assay: Meropenem potentiation (MPC@8), strain AB1054 OXA-23; format: cell-based, Acinetobacter baumannii; settings: minimum BLI concentration inhibiting growth with meropenem 8 μg/mL; tested up to 20 μg/mL
[5] = molecular target: T1, purified class A, C and D enzymes (β-lactamases) (Acinetobacter baumannii, UniProt Q9L4P2); assay: biochemical; format: biochemical; settings: purified OXA-23; nitrocefin (NCF) as reporter substrate
T1 construct: rows headed: Ki (OXA-23, NCF), uM; other: purified OXA-23; nitrocefin (NCF) as reporter substrate

[6] = molecular target: purified class A, C and D enzymes (β-lactamases) (Enterobacter cloacae, UniProt P05364); assay: biochemical; format: biochemical
[7] = molecular target: purified class A, C and D enzymes (β-lactamases) (Escherichia coli, UniProt Q9L5C7); assay: biochemical; format: biochemical; settings: purified CTX-M-14; nitrocefin (NCF) as reporter substrate
[8] = molecular target: purified class A, C and D enzymes (β-lactamases) (Klebsiella pneumoniae, UniProt Q6XEC0); assay: biochemical; format: biochemical; settings: purified OXA-48; nitrocefin (NCF) as reporter substrate
[9] = molecular target: purified class A, C and D enzymes (β-lactamases) (Klebsiella pneumoniae, UniProt Q9F663); assay: biochemical; format: biochemical; settings: purified KPC-2; nitrocefin (NCF) as reporter substrate
[10] = molecular target: T2, purified class A, C and D enzymes (β-lactamases) (Pseudomonas aeruginosa, UniProt P24735); assay: biochemical; format: biochemical
T2 construct: rows headed: Ki (Pa-AmpC, NCF), uM; other: purified Pa-AmpC; nitrocefin (NCF) as reporter substrate

[11] = test system: ECL1002; assay: Aztreonam potentiation (MPC@4), strain ECL1002; settings: minimum BLI concentration inhibiting growth with aztreonam 4 μg/mL; tested up to 40 μg/mL
[12] = test system: ec308 SHV-5; assay: Aztreonam potentiation (MPC@4), strain ec308 SHV-5; settings: minimum BLI concentration inhibiting growth with aztreonam 4 μg/mL; tested up to 40 μg/mL
[13] = test system: ec302 TEM-10; assay: Aztreonam potentiation (MPC@4), strain ec302 TEM-10; settings: minimum BLI concentration inhibiting growth with aztreonam 4 μg/mL; tested up to 40 μg/mL
[14] = test system: KP1004 KPC-2; assay: Aztreonam potentiation (MPC@4), strain KP1004 KPC-2; settings: minimum BLI concentration inhibiting growth with aztreonam 4 μg/mL; tested up to 40 μg/mL
[15] = test system: EC1010 CMY-6; assay: Aztreonam potentiation (MPC@4), strain EC1010 CMY-6; settings: minimum BLI concentration inhibiting growth with aztreonam 4 μg/mL; tested up to 40 μg/mL
[16] = test system: KP1010 SHV-12; assay: Aztreonam potentiation (MPC@4), strain KP1010 SHV-12; settings: minimum BLI concentration inhibiting growth with aztreonam 4 μg/mL; tested up to 40 μg/mL
[17] = test system: KP1009 CTX-M-15; assay: Aztreonam potentiation (MPC@4), strain KP1009 CTX-M-15; settings: minimum BLI concentration inhibiting growth with aztreonam 4 μg/mL; tested up to 40 μg/mL
[18] = test system: KP1005 CTX-M-14; assay: Tigemonam potentiation (MPC@4), strain KP1005 CTX-M-14; settings: minimum BLI concentration inhibiting growth with tigemonam 4 μg/mL; tested up to 40 μg/mL

Chain of purified class A, C and D enzymes (β-lactamases) (Escherichia coli, UniProt Q9L5C7) (Q9L5C7 entry or part of it): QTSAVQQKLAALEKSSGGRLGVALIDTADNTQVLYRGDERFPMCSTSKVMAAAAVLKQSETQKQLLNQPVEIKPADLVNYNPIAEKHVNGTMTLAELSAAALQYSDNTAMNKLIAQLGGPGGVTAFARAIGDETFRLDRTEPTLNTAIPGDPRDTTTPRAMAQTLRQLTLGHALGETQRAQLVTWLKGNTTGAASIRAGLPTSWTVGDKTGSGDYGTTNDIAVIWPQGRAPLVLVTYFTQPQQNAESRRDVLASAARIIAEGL
T2 sequence (P24735 whole entry): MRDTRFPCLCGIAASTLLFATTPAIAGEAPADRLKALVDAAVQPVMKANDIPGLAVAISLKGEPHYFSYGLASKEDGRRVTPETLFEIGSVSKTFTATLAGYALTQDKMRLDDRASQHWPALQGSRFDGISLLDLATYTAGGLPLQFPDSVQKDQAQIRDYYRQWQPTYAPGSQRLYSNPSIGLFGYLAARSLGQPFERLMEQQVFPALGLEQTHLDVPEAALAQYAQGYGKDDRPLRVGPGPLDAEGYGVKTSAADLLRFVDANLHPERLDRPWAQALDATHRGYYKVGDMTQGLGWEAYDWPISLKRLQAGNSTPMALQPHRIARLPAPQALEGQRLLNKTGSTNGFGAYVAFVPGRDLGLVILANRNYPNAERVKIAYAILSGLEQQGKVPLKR
Chain of purified class A, C and D enzymes (β-lactamases) (Enterobacter cloacae, UniProt P05364) (P05364 21-381): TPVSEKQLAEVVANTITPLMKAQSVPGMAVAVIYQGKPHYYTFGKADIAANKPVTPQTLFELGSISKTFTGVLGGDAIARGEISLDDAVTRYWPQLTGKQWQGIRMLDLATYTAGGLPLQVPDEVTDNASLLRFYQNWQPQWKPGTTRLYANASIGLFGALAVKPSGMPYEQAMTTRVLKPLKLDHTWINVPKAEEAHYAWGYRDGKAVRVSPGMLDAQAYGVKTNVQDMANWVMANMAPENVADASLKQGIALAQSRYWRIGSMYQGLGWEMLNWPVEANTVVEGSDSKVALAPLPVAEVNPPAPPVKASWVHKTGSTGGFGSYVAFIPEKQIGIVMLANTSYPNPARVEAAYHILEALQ
T1 sequence (Q9L4P2 whole entry): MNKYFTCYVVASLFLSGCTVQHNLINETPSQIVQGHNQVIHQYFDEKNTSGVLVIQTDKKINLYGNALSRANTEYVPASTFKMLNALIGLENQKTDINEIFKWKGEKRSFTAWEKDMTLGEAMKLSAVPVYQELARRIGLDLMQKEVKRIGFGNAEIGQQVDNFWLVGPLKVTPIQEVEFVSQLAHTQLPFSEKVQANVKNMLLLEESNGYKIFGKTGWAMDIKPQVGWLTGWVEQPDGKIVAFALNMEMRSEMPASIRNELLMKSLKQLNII

Row | SMILES | BPM MPC1 KP1004 KPC-2 [1] | BPM MPC1 OXA-48 KP1086 [2] | MPM MPC8 AB1053 OXA-72 [3] | MPM MPC8 AB1054 OXA-23 [4] | Ki [5] | Ki (P99, NCF), uM [6] | Ki (CTX-M-14, NCF), uM [7] | Ki (OXA-48, NCF), uM [8] | Ki (KPC-2, NCF), uM [9] | Ki [10] | AZT MPC4 ECL1002 [11] | AZT MPC4 SHV-5 ec308 [12] | AZT MPC4 TEM-10 ec302 [13] | AZT MPC4 KPC-2 KP1004 [14] | AZT MPC4 CMY-6 EC1010 [15] | AZT MPC4 SHV-12 KP1010 [16] | AZT MPC4 CTX-M-15 KP1009 [17] | TIG MPC4 CTX-M-14 KP1005 [18]
1 | O=C(O)c1c(-c2c[nH]nn2)ccc2c1O[B-](O)(O)CC2 [Compound 16, Disodium; 4,4-dihydroxy-8-(1H-triazol-5-yl)-5-oxa-4-boranuidabicyclo[4.4.0]deca-1(6),7,9-triene-7-carboxylate] | X (X = MPC@1 ≤ 5 μg/mL) | Y (Y = 5 μg/mL < MPC@1 ≤ 20 μg/mL) | X (X = MPC@1 ≤ 5 μg/mL) | Y (Y = 5 μg/mL < MPC@1 ≤ 20 μg/mL) | < 100 nM | X (key: X = Ki ≤ 0.1 μM; Y = 0.1 μM < Ki ≤ 1 μM; Z = Ki > 1 μM) | X (X = Ki ≤ 0.1 μM) | X (X = Ki ≤ 0.1 μM) | X (X = Ki ≤ 0.1 μM) | < 100 nM | X (X = MPC@4 ≤ 5 μg/mL) | Y (Y = 5 μg/mL < MPC@4 ≤ 20 μg/mL) | X (X = MPC@4 ≤ 5 μg/mL) | X (X = MPC@4 ≤ 5 μg/mL) | X (X = MPC@4 ≤ 5 μg/mL) | X (X = MPC@4 ≤ 5 μg/mL) | X (X = MPC@4 ≤ 5 μg/mL) | Y (Y = 5 μg/mL < MPC@4 ≤ 20 μg/mL)
2 | O=C([O-])c1c(CSC2CNC2)ccc2c1O[B-](O)(O)CC2.[Na+].[Na+] [Compound 19, Disodium; 8-(azetidin-3-ylsulfanylmethyl)-4,4-dihydroxy-5-oxa-4-boranuidabicyclo[4.4.0]deca-1(6),7,9-triene-7-carboxylate] | X (X = MPC@1 ≤ 5 μg/mL) | X (X = MPC@1 ≤ 5 μg/mL) | X (X = MPC@1 ≤ 5 μg/mL) | X (X = MPC@1 ≤ 5 μg/mL) | < 100 nM | X (key: X = Ki ≤ 0.1 μM; Y = 0.1 μM < Ki ≤ 1 μM; Z = Ki > 1 μM) | X (X = Ki ≤ 0.1 μM) | X (X = Ki ≤ 0.1 μM) | X (X = Ki ≤ 0.1 μM) | < 100 nM | Y (Y = 5 μg/mL < MPC@4 ≤ 20 μg/mL) | X (X = MPC@4 ≤ 5 μg/mL) | Y (Y = 5 μg/mL < MPC@4 ≤ 20 μg/mL) | X (X = MPC@4 ≤ 5 μg/mL) | X (X = MPC@4 ≤ 5 μg/mL) | X (X = MPC@4 ≤ 5 μg/mL) | X (X = MPC@4 ≤ 5 μg/mL) | Z (Z = MPC@4 > 20 μg/mL)
3 | O=C([O-])c1c(CSc2nncs2)ccc2c1O[B-](O)(O)CC2.[Na+].[Na+] [Compound 20, Disodium; 4,4-dihydroxy-8-(1,3,4-thiadiazol-2-ylsulfanylmethyl)-5-oxa-4-boranuidabicyclo[4.4.0]deca-1(6),7,9-triene-7-carboxylate] | X (X = MPC@1 ≤ 5 μg/mL) | X (X = MPC@1 ≤ 5 μg/mL) | Y (Y = 5 μg/mL < MPC@1 ≤ 20 μg/mL) | Y (Y = 5 μg/mL < MPC@1 ≤ 20 μg/mL) | < 100 nM | X (key: X = Ki ≤ 0.1 μM; Y = 0.1 μM < Ki ≤ 1 μM; Z = Ki > 1 μM) | X (X = Ki ≤ 0.1 μM) | X (X = Ki ≤ 0.1 μM) | X (X = Ki ≤ 0.1 μM) | < 100 nM | X (X = MPC@4 ≤ 5 μg/mL) | X (X = MPC@4 ≤ 5 μg/mL) | X (X = MPC@4 ≤ 5 μg/mL) | X (X = MPC@4 ≤ 5 μg/mL) | X (X = MPC@4 ≤ 5 μg/mL) | X (X = MPC@4 ≤ 5 μg/mL) | X (X = MPC@4 ≤ 5 μg/mL) | Y (Y = 5 μg/mL < MPC@4 ≤ 20 μg/mL)
4 | NCCCSCc1ccc2c(c1C(=O)[O-])O[B-](O)(O)CC2.[Na+].[Na+] [Compound 21, Disodium; 8-(3-aminopropylsulfanylmethyl)-4,4-dihydroxy-5-oxa-4-boranuidabicyclo[4.4.0]deca-1(6),7,9-triene-7-carboxylate] | X (X = MPC@1 ≤ 5 μg/mL) | X (X = MPC@1 ≤ 5 μg/mL) | X (X = MPC@1 ≤ 5 μg/mL) | X (X = MPC@1 ≤ 5 μg/mL) | < 100 nM | X (key: X = Ki ≤ 0.1 μM; Y = 0.1 μM < Ki ≤ 1 μM; Z = Ki > 1 μM) | X (X = Ki ≤ 0.1 μM) | X (X = Ki ≤ 0.1 μM) | X (X = Ki ≤ 0.1 μM) | < 100 nM | Y (Y = 5 μg/mL < MPC@4 ≤ 20 μg/mL) | Y (Y = 5 μg/mL < MPC@4 ≤ 20 μg/mL) | Y (Y = 5 μg/mL < MPC@4 ≤ 20 μg/mL) | X (X = MPC@4 ≤ 5 μg/mL) | X (X = MPC@4 ≤ 5 μg/mL) | X (X = MPC@4 ≤ 5 μg/mL) | Y (Y = 5 μg/mL < MPC@4 ≤ 20 μg/mL) | Z (Z = MPC@4 > 20 μg/mL)
5 | Nc1nnc(SCc2ccc3c(c2C(=O)[O-])O[B-](O)(O)CC3)s1.[Na+].[Na+] [Compound 22, Disodium; 8-[(5-amino-1,3,4-thiadiazol-2-yl)sulfanylmethyl]-4,4-dihydroxy-5-oxa-4-boranuidabicyclo[4.4.0]deca-1(6),7,9-triene-7-carboxylate] | X (X = MPC@1 ≤ 5 μg/mL) | Y (Y = 5 μg/mL < MPC@1 ≤ 20 μg/mL) | Z (Z = MPC@1 > 20 μg/mL) | Y (Y = 5 μg/mL < MPC@1 ≤ 20 μg/mL) | < 100 nM | X (key: X = Ki ≤ 0.1 μM; Y = 0.1 μM < Ki ≤ 1 μM; Z = Ki > 1 μM) | X (X = Ki ≤ 0.1 μM) | X (X = Ki ≤ 0.1 μM) | X (X = Ki ≤ 0.1 μM) | < 100 nM | Y (Y = 5 μg/mL < MPC@4 ≤ 20 μg/mL) | Y (Y = 5 μg/mL < MPC@4 ≤ 20 μg/mL) | X (X = MPC@4 ≤ 5 μg/mL) | X (X = MPC@4 ≤ 5 μg/mL) | X (X = MPC@4 ≤ 5 μg/mL) | X (X = MPC@4 ≤ 5 μg/mL) | Y (Y = 5 μg/mL < MPC@4 ≤ 20 μg/mL) | Z (Z = MPC@4 > 20 μg/mL)
